The source of these data is PubChem BioAssay (NCI).

Structures are written as SMILES.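 Compound exposure: 48 hours, 5 concentrations, 96-well plates. GI50 = concentration required for 50% inhibition of growth. Definition used: TGI = concentration required for complete inhibition of growth.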 Bounds are passed on as bounds.

Some test systems named below: A549 NSCLC; CAKI-1 renal; HL-60(TB) leukemia; HT29 colon; LOX IMVI melanoma; MALME-3M melanoma; NCI-H23 lung; NCI-H522 lung; OVCAR-8 ovarian; RPMI-8226 leukemia; SF-539 CNS; U251 CNS; UACC-257 melanoma; RXF 393 renal; SR leukemia; M14 melanoma.
What all share (assay): DTP human tumour cell line panel, 48 h

For the compound `CN(C)c1snc2c1c(=O)n(C)c(=O)n2C`, the concentration for total growth inhibition (TGI) in the assay on A549 NSCLC, with CAKI-1 renal, with HL-60(TB) leukemia, with HT29 colon, in the assay with LOX IMVI melanoma and in the assay on MALME-3M melanoma was more than 100 µM in each case. In addition, the TGI with NCI-H23 lung, in the assay with NCI-H522 lung, in the assay on OVCAR-8 ovarian, in the assay on RPMI-8226 leukemia, in the assay with SF-539 CNS and in the assay with U251 CNS was more than 100 µM in each case. The TGI in the assay on UACC-257 melanoma was more than 100 µM.

Consider `C/C=C1\CN2CCc3c([nH]c4ccccc34)C2C=C1CCO` (stereo unspecified), for which the total growth inhibition concentration (TGI) with A549 NSCLC, in the assay on CAKI-1 renal, in the assay with HL-60(TB) leukemia, in the assay on HT29 colon, with LOX IMVI melanoma and in the assay on MALME-3M melanoma was more than 340 µM in each case. The total growth inhibition concentration (TGI) with NCI-H23 lung, in the assay on NCI-H522 lung, with OVCAR-8 ovarian, in the assay with RPMI-8226 leukemia, with RXF 393 renal and in the assay with SF-539 CNS was more than 340 µM throughout. Further, the TGI with SR leukemia, with U251 CNS and with UACC-257 melanoma was more than 340 µM each time.

Regarding `COC(=O)C(Br)C1CCc2ccccc21` (stereo unspecified), the TGI in the assay with A549 NSCLC, with CAKI-1 renal, in the assay with HL-60(TB) leukemia, in the assay with HT29 colon, with LOX IMVI melanoma and in the assay on M14 melanoma was more than 100 µM in each case. Besides, the concentration for total growth inhibition (TGI) with MALME-3M melanoma, with NCI-H23 lung, with OVCAR-8 ovarian, with RPMI-8226 leukemia, in the assay on SR leukemia and in the assay on U251 CNS was more than 100 µM in each case. For the same compound, the concentration for total growth inhibition (TGI) in the assay on UACC-257 melanoma is more than 100 µM.

Regarding `COc1ccc(/C(=C/n2ccnc2)C(O)c2ccc(OC)c(OC)c2)cc1OC` (stereo unspecified), the total growth inhibition concentration (TGI) in the assay with HL-60(TB) leukemia, with HT29 colon, with LOX IMVI melanoma, in the assay with M14 melanoma, in the assay on NCI-H23 lung and with OVCAR-8 ovarian was more than 100 µM each time. The TGI in the assay with RPMI-8226 leukemia, in the assay on RXF 393 renal, with SF-539 CNS, in the assay with SR leukemia, with U251 CNS and with UACC-257 melanoma was more than 100 µM in each case.

On to `COC(=O)C(C(=O)C(=O)Nc1cccc([N+](=O)[O-])c1)c1nc2ccc([N+](=O)[O-])cc2[nH]c1=O` (stereo unspecified), for which the TGI in the assay on A549 NSCLC, with CAKI-1 renal, with HL-60(TB) leukemia, in the assay with HT29 colon, in the assay on LOX IMVI melanoma and in the assay on M14 melanoma was more than 100 µM throughout. Also, the TGI in the assay with MALME-3M melanoma, in the assay on NCI-H23 lung, with NCI-H522 lung, with OVCAR-8 ovarian, in the assay on RXF 393 renal and in the assay on SF-539 CNS was more than 100 µM throughout. In addition, the TGI with SR leukemia, with U251 CNS and in the assay on UACC-257 melanoma was more than 100 µM in each case.

Turning to `C#CCN(N=O)C(=O)NCCCCC(NC(C)=O)C(=O)NCc1ccccc1` (stereo unspecified), the TGI with A549 NSCLC, in the assay on CAKI-1 renal, in the assay with HT29 colon, in the assay on LOX IMVI melanoma, in the assay with M14 melanoma and in the assay with MALME-3M melanoma was more than 100 µM each time. Besides, the TGI in the assay with NCI-H23 lung, in the assay on NCI-H522 lung, in the assay on OVCAR-8 ovarian, in the assay with RPMI-8226 leukemia, with RXF 393 renal and in the assay with SF-539 CNS was more than 100 µM in each case. Also, the TGI in the assay with SR leukemia, in the assay with U251 CNS and with UACC-257 melanoma was more than 100 µM each time.

Turning to `O=c1cc(-c2ccco2)[nH]c2cc3c(cc12)OCO3`, the TGI in the assay on A549 NSCLC, in the assay on HL-60(TB) leukemia, in the assay with HT29 colon, with LOX IMVI melanoma, in the assay on MALME-3M melanoma and in the assay with NCI-H23 lung was more than 100 µM each time. Further, the TGI with RPMI-8226 leukemia was more than 100 µM; with RXF 393 renal, 92.8 µM; in the assay with SF-539 CNS, 75.5 µM; with SR leukemia, more than 100 µM; with U251 CNS, more than 100 µM; in the assay on UACC-257 melanoma, more than 100 µM. The GI50 with RXF 393 renal is 24.9 µM.

On to `C=CCN1/C(=C2\SC(=S)N(c3ccc(C)cc3)C2=O)Sc2c1nc[nH]c2=O`, for which the total growth inhibition concentration (TGI) in the assay on A549 NSCLC, in the assay on CAKI-1 renal, in the assay with HL-60(TB) leukemia, in the assay with HT29 colon, in the assay on LOX IMVI melanoma and in the assay on M14 melanoma was more than 100 µM throughout. The TGI with MALME-3M melanoma, in the assay on NCI-H23 lung, in the assay with NCI-H522 lung, with OVCAR-8 ovarian, in the assay with RPMI-8226 leukemia and with RXF 393 renal was more than 100 µM in each case. The total growth inhibition concentration (TGI) with SF-539 CNS, in the assay on U251 CNS and in the assay on UACC-257 melanoma was more than 100 µM throughout.

Usually TGI stands for the concentration at which net growth stops. Usually GI50 stands for the concentration that inhibits growth by half.
